In patent publication US20120157434A1, “Antimicrobial heterocyclic compounds for treatment of bacterial infections” (CSO of MicuRx Pharmaceuticals, Inc., priority 2007, published 2012):
≈ marks a conversion by molar mass, not a printed value. Read-outs that look alike come from different tables or passages of the source.

How the values were obtained:
[1] = test system: methicillin-resistant Staphylococcus aureus (MRSA); assay: MIC by agar dilution against a clinical isolate of MRSA; format: cell-based
Description: The in vitro activity of compounds of the subject invention may be assessed by standard testing procedures such as the determination of minimum inhibitory concentration (MIC) by agar dilution as described in “Approved Standard. Methods for Dilution Antimicrobial Susceptibility Tests for Bacteria that Grow Aerobically,” 3rd ed., published 1993 by the National Committee for Clinical Laboratory standards, Villanova, Pa., USA.
The in vitro MICs of test compounds may be determined by a standard agar dilution method. A stock drug solution of each analog is prepared in a preferred solvent, usually DMSO:H2O (1:3). Serial 2-fold dilutions of each sample are made using 1.0 ml aliquots of sterile distilled water. To each 1.0 ml aliquot of drug is added 9 ml of molten Mueller Hinton agar medium. The drug-supplemented agar is mixed, poured into 15×100 mm petri dishes, and allowed to solidify and dry prior to inoculation.
Vials of each of the test microorganisms are maintained frozen in the vapor phase of a liquid nitrogen freezer. Test cultures are grown overnight at 35° C. on the medium appropriate for the microorganism. Colonies are harvested with a sterile swab, and cell suspensions are prepared in Trypticase Soy broth (TSB) to equal the turbidity of a 0.5 McFarland standard. A 1:20 dilution of each suspension is made in TSB. The plates containing the drug supplemented agar are inoculated with a 0.001 ml drop of the cell suspension using a Steers replicator, yielding approximately 10^4 to 10^5 cells per spot. The plates are incubated overnight at 35° C.
Following incubation the Minimum Inhibitory Concentration (MIC μg/ml), the lowest concentration of drug that inhibits visible growth of the microorganism, is read and recorded.
Compounds of this invention can have useful activity against a variety of pathogenic microorganisms. The in vitro activity of compounds of this invention can be assessed by standard testing procedures such as the determination of minimum inhibitory concentration (MIC) by agar dilution as described in “Approved Standard. Methods for Dilution Antimicrobial Susceptibility Tests for Bacteria That Grow Aerobically”, 3rd. ed., published 1993 by the National Committee for Clinical Laboratory Standards, Villanova, Pa., USA. Minimum inhibitory concentration (MIC) refers to the lowest concentration of drug (μg/mL) that inhibits visible growth of the organism. Lower MIC values indicate a higher antibacterial activity. […] The activity of compounds of present invention against a clinical isolate of methicillin-resistant Staphylococcus aureus (MRSA; from the Massachusetts General Hospital, USA) is exemplified by the MIC data of Table 1.

[2] = target: T1, Human monoamine oxidase (MOA) A type enzyme (Homo sapiens, UniProt P21397); assay: MAO A inhibition, MAO-Glo assay kit (Promega); format: biochemical; settings: luminogenic substrate; for IC50: read-out: MAO-I IC50, μg/mL (converted)
T1 sequence (P21397 1-527): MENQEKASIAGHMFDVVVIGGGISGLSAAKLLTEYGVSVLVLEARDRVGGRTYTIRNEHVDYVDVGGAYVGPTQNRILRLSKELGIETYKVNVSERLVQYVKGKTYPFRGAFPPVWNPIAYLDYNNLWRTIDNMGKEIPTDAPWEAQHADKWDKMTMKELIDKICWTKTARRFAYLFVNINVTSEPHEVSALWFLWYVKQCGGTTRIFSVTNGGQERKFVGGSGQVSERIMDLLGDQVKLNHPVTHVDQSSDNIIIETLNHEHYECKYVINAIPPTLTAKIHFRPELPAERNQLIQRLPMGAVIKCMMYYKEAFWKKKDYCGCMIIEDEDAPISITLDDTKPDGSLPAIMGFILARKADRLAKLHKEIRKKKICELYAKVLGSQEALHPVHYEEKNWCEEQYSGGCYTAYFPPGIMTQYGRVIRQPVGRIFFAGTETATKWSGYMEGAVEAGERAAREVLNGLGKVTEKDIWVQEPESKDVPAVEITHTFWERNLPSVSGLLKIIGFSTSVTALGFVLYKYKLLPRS
Experimental: Human monoamine oxidase (MOA) A type enzyme inhibition activity for select compounds was measured using a commercial MAO assay kit MAO-Glo™ from Promega Co. (USA). The assay was performed as described in the company's technical bulletin MAOGlo™ Assay”. The protocol involves an incubation of the MAO A enzyme with a luminogenic MAO substrate to produce an enzymatic product which is converted to luciferin by a coupled reaction. The released luciferin undergoes further transformation to generate light that is detected and measured. The amount of the light is directly proportional to the activity of MAO. Percent inhibition at several concentrations is established relative to the uninhibited control rate, and the IC50 values are calculated. […] The MAO inhibition data for select compound of this invention are illustrated in the Table 1.

[3] = Staphylococcus aureus, read-out: MRSA, MIC, μg/mL
[4] = clinical isolate of methicillin-resistant Staphylococcus aureus (Massachusetts General Hospital, USA), agar dilution, read-out: MRSA, MIC

MIC [1, 4] [µg/mL] | IC50 [2] [µM] | MAO-I IC50 [2] [µg/mL] | Compound | MIC [1, 3] [µg/mL]
 |  |  | CC(=O)NC[C@@H]1OC(=O)N2c3ccc(-c4ccc(-c5nnn(C)n5)nc4)cc3C[C@@H]12 [Example 1, N-(((1S,9aS)-7-(6-(2-methyl-2H-tetrazol-5-yl)pyridin-3-yl)-3-oxo-1,3,9,9a-tetrahydrooxazolo[3,4-a]indol-1-yl)methyl)acetamide] | 0.5 (≈ 1.23 µM)
0.5 (≈ 1.23 µM) |  |  | CC(=O)NC[C@@H]1OC(=O)N2c3ccc(-c4ccc(-c5nnnn5C)nc4)cc3C[C@@H]12 [Example 2, N-(((1S,9aS)-7-(6-(1-methyl-1H-tetrazol-5-yl)pyridin-3-yl)-3-oxo-1,3,9,9a-tetrahydrooxazolo[3,4-a]indol-1-yl)methyl)acetamide] | 
 |  |  | CC(=O)NC[C@@H]1OC(=O)N2c3ccc(-c4ccc(N5CCOC5=O)nc4)cc3C[C@@H]12 [Example 3, N-(((1S,9aS)-3-oxo-7-(6-(2-oxooxazolidin-3-yl)pyridin-3-yl)-1,3,9,9a-tetrahydrooxazolo[3,4-a]indol-1-yl)methyl)acetamide] | 0.25 (≈ 0.612 µM)
0.5 (≈ 1.28 µM) | 353 |  | CC(=O)NC[C@@H]1OC(=O)N2c3ccc(-c4ccc(-n5cnnn5)nc4)cc3C[C@@H]12 [Example 4, N-(((1S,9aS)-7-(6-(1H-tetrazol-1-yl)pyridin-3-yl)-3-oxo-1,3,9,9a-tetrahydrooxazolo[3,4-a]indol-1-yl)methyl)acetamide] | 
0.5 (≈ 1.37 µM) |  |  | CC(=O)NC[C@@H]1OC(=O)N2c3ccc(N4Cc5cccnc5C4)cc3C[C@@H]12 [Example 6, N-(((1S,9aS)-3-oxo-7-(5H-pyrrolo[3,4-b]pyridin-6(7H)-yl)-1,3,9,9a-tetrahydrooxazolo[3,4-a]indol-1-yl)methyl)acetamide] | 
 |  |  | CC(=O)NC[C@@H]1OC(=O)N2c3ccc(-c4ccc(C5=NOC(CO)C5)nc4)cc3C[C@@H]12 (stereo partly drawn) [Example 8, N-(((1S,9aS)-7-(6-(5-(hydroxymethyl)-4,5-dihydroisoxazol-3-yl)pyridin-3-yl)-3-oxo-1,3,9,9a-tetrahydrooxazolo[3,4-a]indol-1-yl)methyl)acetamide] | 1 (≈ 2.37 µM)
0.5 (≈ 1.16 µM) | > 233 |  | CC(=O)NC[C@@H]1OC(=O)N2c3ccc(-c4ccc([C@@]5(C#N)[C@@H]6CNC[C@@H]65)nc4)cc3C[C@@H]12 [Example 18, N-(((1S,9aS)-7-(6-((1R,5S,6s)-6-cyano-3-azabicyclo[3.1.0]hexan-6-yl)pyridin-3-yl)-3-oxo-1,3,9,9a-tetrahydrooxazolo[3,4-a]indol-1-yl)methyl)acetamide] | 
2 (≈ 5.93 µM) |  | 5 | CC(=O)NC[C@H]1CN(c2ccc(N3CCOCC3)c(F)c2)C(=O)O1 [Linezolid, linezolid, reference compound] | 

Compound | MIC [1, 4] [µg/mL] | IC50 [2] [µM] | MAO-I IC50 [2] [µg/mL] | MIC [1, 3] [µg/mL]
CC(=O)NC[C@@H]1OC(=O)N2c3ccc(-c4ccc(C(=O)Cn5ccnc5)nc4)cc3C[C@@H]12 [Example 11, N-(((1S,9aS)-7-(6-(2-(1H-imidazol-1-yl)acetyl)pyridin-3-yl)-3-oxo-1,3,9,9a-tetrahydrooxazolo[3,4-a]indol-1-yl)methyl)acetamide] |  | > 232 |  | 1 (≈ 2.32 µM)
